The subject of series [1] is SNB-19 (human glioblastoma). The series is described as follows: WST-1 proliferation assay, SNB-19. It counts as cell-based. As to conditions: SNB-19 cells, 72 h exposure; for IC50: Homo sapiens, SNB-19, 72 h, read-out: Antiproliferative activity IC50 SNB-19. How it is done:
(§1) Compounds were evaluated for their anticancer activity using three cultured cell lines: SNB-19 (human glioblastoma, DSMZ - German Collection of Microorganisms and Cell Cultures, Braunschweig, Germany), C-32 (human amelanotic melanoma, ATCC-American Type Culture Collection, Manassas, VA, USA), MDA-MB-231 (human adenocarcinoma mammary gland, ATCC, Manassas, VA, USA), and HFF-1 (human fibroblast cell line, ATCC, Manassas, VA, USA). The cultured cells were kept at 37 °C and 5% CO2. The cells were seeded (1 × 10^4 cells/well/100 μL DMEM supplemented with 10% FCS and streptomycin and penicillin) using 96-well plates (Corning). The cells were counted in a hemocytometer (Burker’s chamber) using a phase contrast Olympus IX50 microscope equipped with Sony SSC-DC58 AP camera and Olympus DP10 digital camera.
(§2) The antiproliferative effect of the compounds obtained from both the cancer and the normal cells was determined using the Cell Proliferation Reagent WST-1 assay (Roche Diagnostics, Mannheim, Germany). This colorimetric assay is based on the viable cell’s ability to cause the bright red-colored stable tetrazolium salt (2-(4-iodophenyl)-3-(4-nitrophenyl)-5-(2,4-disulfophenyl)-2H-tetrazolium, monosodium salt) to cleave to the dark red soluble formazan by cellular enzymes. An expansion in the number of viable cells results in an increase in the overall activity of mitochondrial dehydrogenases in the sample. An increase in the amount of formazan dye formed correlates to the number of metabolically active cells in the culture. The formazan dye produced by metabolically active cells is quantified by a scanning ELISA reader that measures the absorbance of the dye solution at appropriate wavelengths. The examined cells were exposed to the tested compounds for 72 h at various concentrations between 0.1 and 100 μg/mL (prepared initially at a concentration of 1 mg/mL in DMSO). The control was performed in order to check that DMSO has no effect on the cells at the concentration used. The cells were incubated with WST-1 (10 μL) for 1 h and the absorbance of the samples was measured against a background control at 450 nm using a microplate reader with a reference wavelength at 600 nm. The results are expressed as the means of at least two independent experiments performed in triplicate. […] The IC50 values (a concentration of a compound that is required for 50% inhibition) were calculated from the dose–response relationship with respect to control.

Series [2] relates to MDA-MB-231 (human adenocarcinoma mammary gland). Kind of series: WST-1 proliferation assay, MDA-MB-231. As to conditions: Homo sapiens, MDA-MB-231, 72 h, MDA-MB-231 cells, 72 h exposure, read-out: Antiproliferative activity IC50 MDA-MB-231. It counts as cell-based. How it is done:
as §1, §2

In series [3] the test system is C-32 (human amelanotic melanoma). Kind of series: WST-1 proliferation assay, C-32. The following applies: C-32 cells, 72 h exposure; for IC50: Homo sapiens, C32, 72 h, read-out: Antiproliferative activity IC50 C-32. It counts as cell-based. How it is done: as §1, §2
The subject of series [4] is HFF-1 (human fibroblast cell line). The series is described as follows: WST-1 proliferation assay, normal fibroblasts HFF-1. It counts as cell-based. The following applies: for IC50: normal human fibroblasts HFF-1, 72 h exposure, WST-1, read-out: Antiproliferative activity IC50 HFF-1. How it is done: as §1
as §2, with “The control was performed in order to check that DMSO has no effect on the cells at the concentration used.” left out

In brackets after ≈: the same amount, converted by molar mass.

For the compound `Cn1c(SCC#CCN2CCCCC2)nc2nc(Cl)nc(SCC#CCN3CCCCC3)c21` [Compound 15b, 2-Chloro-6,8-di(4-N-piperidinylbut-2-ynylthio)-7-methylpurine], the melting point is 108 to 110 °C. Moreover, the IC50 in series [1] stood at 11.6 µg/mL (≈ 23.1 µM). The IC50 in series [2] is 38.1 µg/mL (≈ 75.7 µM). Besides, in series [3], the IC50 was found to be 19.1 µg/mL (≈ 37.9 µM). In addition, the IC50 in series [4] is 5.5 µg/mL (≈ 10.9 µM).

The compound `CCN(CC)CC#CCSc1nc(Cl)nc2nc(SCC#CCN(CC)CC)n(C)c12` [Compound 15d, 2-Chloro-6,8-di(diethylaminobut-2-ynylthio)-7-methylpurine] had a melting point of 88 to 90 °C. In series [1], the IC50 fell in the range of 2.9 to 5.3 µg/mL (≈ 6.05 to 11.1 µM) and the “Antiproliferative activity IC50 SNB-19” value was 2.91 µg/mL. The IC50 in series [2] came out at 10 µg/mL (≈ 20.9 µM). In addition, in series [3], the “Antiproliferative activity IC50 C-32” value turned out to be 5.33 µg/mL and the IC50 was in the range of 2.9 to 5.3 µg/mL (≈ 6.05 to 11.1 µM). Further, the “cytotoxicity on the normal human fibroblasts (HFF-1), in words” value in series [4] (normal human fibroblasts HFF-1) is “cytotoxic”. Further, in series [4], the IC50 is 1 µg/mL (≈ 2.09 µM).

Values taken from PMC5904222, “Synthesis and anticancer activity of multisubstituted purines and xanthines with one or two propynylthio and aminobutynylthio groups” (Medicinal Chemistry Research, 2018).
